{"source": "patent US10626081B2", "about": "“Farnesoid X receptor agonists and uses thereof” (Metacrine, Inc., priority 2015, dated 2020)"}
{"target": "T1, FXR (Homo sapiens, UniProt Q96RI1)", "T1 construct": "expressed in transfected cells; host or cells: CV-1 cells", "T1 sequence (Q96RI1 1-486)": "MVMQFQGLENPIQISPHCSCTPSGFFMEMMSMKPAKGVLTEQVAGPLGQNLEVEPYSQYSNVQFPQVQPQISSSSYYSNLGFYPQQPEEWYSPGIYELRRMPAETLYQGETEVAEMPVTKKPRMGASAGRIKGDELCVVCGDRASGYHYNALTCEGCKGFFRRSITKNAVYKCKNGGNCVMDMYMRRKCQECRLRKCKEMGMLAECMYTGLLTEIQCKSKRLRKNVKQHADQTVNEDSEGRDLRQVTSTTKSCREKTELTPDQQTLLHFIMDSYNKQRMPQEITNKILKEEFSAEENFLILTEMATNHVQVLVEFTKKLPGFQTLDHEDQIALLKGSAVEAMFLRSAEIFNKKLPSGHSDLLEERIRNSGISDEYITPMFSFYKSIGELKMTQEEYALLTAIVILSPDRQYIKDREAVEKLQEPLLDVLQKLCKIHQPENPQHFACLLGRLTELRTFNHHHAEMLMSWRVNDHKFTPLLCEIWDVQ", "T1 sequence (P19793 1-462 partner)": "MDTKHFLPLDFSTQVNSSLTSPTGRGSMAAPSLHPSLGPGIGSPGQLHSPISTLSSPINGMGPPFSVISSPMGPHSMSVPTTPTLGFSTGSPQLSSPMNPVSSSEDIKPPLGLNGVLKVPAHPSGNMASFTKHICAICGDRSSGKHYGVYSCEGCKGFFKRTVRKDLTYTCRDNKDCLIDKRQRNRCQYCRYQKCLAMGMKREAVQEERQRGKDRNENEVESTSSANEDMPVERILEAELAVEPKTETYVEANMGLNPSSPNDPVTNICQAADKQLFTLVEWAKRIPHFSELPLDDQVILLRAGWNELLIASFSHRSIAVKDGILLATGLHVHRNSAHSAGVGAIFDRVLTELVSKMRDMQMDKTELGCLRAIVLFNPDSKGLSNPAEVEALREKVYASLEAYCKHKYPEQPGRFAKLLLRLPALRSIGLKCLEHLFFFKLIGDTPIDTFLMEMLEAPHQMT", "assay": "In Vitro FXR Assay (TK): TK-ECRE-luc reporter in transfected CV-1 cells", "type": "cell-based", "details": "CV-1 cells transfected with hFXR, hRXR, 18 h incubation, luminescence", "description": "Example B-2: In Vitro FXR Assay (TK)\nCV-1 cells were seeded at a density of 2,000,000 cells in a T175 flask with DMEM+10% charcoal double-stripped FBS and incubated at 37° C. in 5% CO2 for 18 h (O/N).\nAfter 18 h of incubation, the medium in the T175 flask was changed with fresh DMEM+10% charcoal super-stripped serum. In a polypropylene tube, 2500 μL OptiMEM (Life Technologies, Cat #31985-062) was combined with expression plasmids for hFXR, hRXR, TK-ECRE-luc and pCMX-YFP. The tube was then briefly vortexed and incubated at room temperature for 5 minutes. Transfection reagent (X-tremeGENE HP from Roche, Cat #06 366 236 001) was added to the OptiMEM/plasmid mixture vortexed and incubated at room temperature for 20 minutes. Following incubation, the transfection reagent/DNA mixture complex was added to cells in the T175 flask and the cells were incubated at 37° C. in 5% CO2 for 18 h (O/N).\nCompounds were serially diluted in DMSO and added to transfected CV-1 cells. The cells were then incubated for 18 hrs. The next day cells were lysed and examined for luminescence.", "units": {"EC50": "nM"}}
{"smiles": "COC(=O)/C=C/c1cccc(N(Cc2ccc(-c3ccc(N(C)C)cc3)cc2)C(=O)C2CC[S+]([O-])CC2)c1", "note": "(stereo not shown) [13.19, (E)-Methyl 3-(3-(N-((4′-(dimethylamino)-[1,1′-biphenyl]-4-yl)methyl)-1-oxidotetrahydro-2H-thiopyran-4-carboxamido)phenyl)acrylate]", "EC50": "1000 to 10000"}
{"smiles": "COC(=O)/C=C/c1cccc(N(Cc2ccc(-c3ccc(N(C)C)cc3)cc2)C(=O)C2CCC([S+](C)[O-])CC2)c1", "note": "(stereo not shown) [13.20, (E)-Methyl 3-(3-(N-((4′-(dimethylamino)-[1,1′-biphenyl]-4-yl)methyl)-4-(methylsulfinyl)cyclohexanecarboxamido)phenyl)acrylate]", "EC50": "1000 to 10000"}
{"smiles": "COC(=O)/C=C/c1cccc(N(Cc2ccc(-c3ccc(N(C)C)cc3)cc2)C(=O)c2ccc(O)cc2)c1", "note": "[13.21, (E)-Methyl 3-(3-(N-((4′-(dimethylamino)-[1,1′-biphenyl]-4-yl)methyl)-4-hydroxybenzamido)phenyl)acrylate]", "EC50": "≤ 1000"}
{"smiles": "COC(=O)/C=C/c1cccc(N(Cc2ccc(-c3ccc(N(C)C)cc3)cc2)C(=O)c2ccc(OCCO)cc2)c1", "note": "[13.22, (E)-Methyl 3-(3-(N-((4′-(dimethylamino)-[1,1′-biphenyl]-4-yl)methyl)-4-(2-hydroxyethoxy)benzamido)phenyl)acrylate]", "EC50": "≤ 1000"}
{"smiles": "COC(=O)/C=C/c1cccc(N(Cc2ccc(-c3ccc(N(C)C)cc3)cc2)C(=O)C(C)(C)CO)c1", "note": "[13.23, (E)-Methyl 3-(3-(N-((4′-(dimethylamino)-[1,1′-biphenyl]-4-yl)methyl)-3-hydroxy-2,2-dimethylpropanamido)phenyl)acrylate]", "EC50": "1000 to 10000"}
{"smiles": "COC(=O)/C=C/c1cccc(N(Cc2ccc(-c3ccc(N(C)C)cc3)cc2)C(=O)C(C)(C)CCl)c1", "note": "[13.24, (E)-Methyl 3-(3-(3-chloro-N-((4′-(dimethylamino)-[1,1′-biphenyl]-4-yl)methyl)-2,2-dimethylpropanamido)phenyl)acrylate]", "EC50": "≤ 1000"}
{"smiles": "COC(=O)/C=C/c1cccc(N(Cc2ccc(-c3ccc(N(C)C)cc3)cc2)C(=O)C2CCCCO2)c1", "note": "(stereo not shown) [17.1, (E)-Methyl 3-(3-(N-((4′-(dimethylamino)-[1,1′-biphenyl]-4-yl)methyl)tetrahydro-2H-pyran-2-carboxamido)phenyl)acrylate]", "EC50": "≤ 1000"}
{"smiles": "COC(=O)/C=C/c1cccc(N(Cc2ccc(-c3ccc(N(C)C)cc3)cc2)C(=O)C2COCCO2)c1", "note": "(stereo not shown) [17.2, (E)-Methyl 3-(3-(N-((4′-(dimethylamino)-[1,1′-biphenyl]-4-yl)methyl)-1,4-dioxane-2-carboxamido)phenyl)acrylate]", "EC50": "1000 to 10000"}
{"smiles": "COC(=O)/C=C/c1cccc(N(Cc2ccc(-c3ccc(N(C)C)cc3)cc2)C(=O)C2CCCOC2)c1", "note": "(stereo not shown) [17.3, (E)-Methyl 3-(3-(N-((4′-(dimethylamino)-[1,1′-biphenyl]-4-yl)methyl)tetrahydro-2H-pyran-3-carboxamido)phenyl)acrylate]", "EC50": "1000 to 10000"}
{"smiles": "COC(=O)/C=C/c1cccc(N(Cc2ccc(-c3ccc(OC)c(C)c3)cc2)C(=O)c2ccncc2)c1", "note": "[62.1, (E)-Methyl 3-(3-(N-((4′-methoxy-3′-methyl-[1,1′-biphenyl]-4-yl)methyl)isonicotinamido)phenyl)acrylate]", "EC50": "1000 to 10000"}
{"smiles": "COC(=O)/C=C/c1cccc(N(Cc2ccc(-c3cccc(C(=O)OC)c3)cc2)C(=O)C2CCCCC2)c1", "note": "[62.2, (E)-Methyl 4′-((N-(3-(3-methoxy-3-oxoprop-1-en-1-yl)phenyl)cyclohexanecarboxamido)methyl)-[1,1′-biphenyl]-3-carboxylate]", "EC50": "1000 to 10000"}
{"smiles": "COC(=O)/C=C/c1cccc(N(Cc2ccc(-c3ccc(C(=O)OC)cc3)cc2)C(=O)C2CCCCC2)c1", "note": "[62.3, (E)-Methyl 4′-((N-(3-(3-methoxy-3-oxoprop-1-en-1-yl)phenyl)cyclohexanecarboxamido)methyl)-[1,1′-biphenyl]-4-carboxylate]", "EC50": "1000 to 10000"}
{"smiles": "COC(=O)/C=C/c1cccc(N(Cc2ccc(-c3ccc(S(C)(=O)=O)cc3)cc2)C(=O)C2CCCCC2)c1", "note": "[62.4, (E)-Methyl 3-(3-(N-((4′-(methylsulfonyl)-[1,1′-biphenyl]-4-yl)methyl)cyclohexanecarboxamido)phenyl) acrylate]", "EC50": "1000 to 10000"}
{"smiles": "COC(=O)/C=C/c1cccc(N(Cc2ccc(-c3ccc(OC)c(C)c3)cc2)C(=O)C2CCN(C(=O)OC(C)(C)C)CC2)c1", "note": "[62.5, (E)-tert-Butyl 4-(((4′-methoxy-3′-methyl-[1,1′-biphenyl]-4-yl)methyl)(3-(3-methoxy-3-oxoprop-1-en-1-yl)phenyl)carbamoyl)piperidine-1-carboxylate]", "EC50": "1000 to 10000"}
{"smiles": "COC(=O)/C=C/c1cccc(N(Cc2ccc(-c3cccc(CO)c3)cc2)C(=O)C2CCCCC2)c1", "note": "[62.6, (E)-Methyl 3-(3-(N-((3′-(hydroxymethyl)-[1,1′-biphenyl]-4-yl)methyl)cyclohexanecarboxamido)phenyl) acrylate]", "EC50": "1000 to 10000"}
{"smiles": "COC(=O)/C=C/c1cccc(N(Cc2ccc(-c3ccc(CO)cc3)cc2)C(=O)C2CCCCC2)c1", "note": "[62.7, (E)-Methyl 3-(3-(N-((4′-(hydroxymethyl)-[1,1′-biphenyl]-4-yl)methyl)cyclohexanecarboxamido)phenyl) acrylate]", "EC50": "> 10000"}
{"smiles": "COC(=O)/C=C/c1cccc(N(Cc2ccc(-c3cccc(S(C)(=O)=O)c3)cc2)C(=O)C2CCCCC2)c1", "note": "[62.8, (E)-Methyl 3-(3-(N-((3′-(methylsulfonyl)-[1,1′-biphenyl]-4-yl)methyl)cyclohexanecarboxamido)phenyl) acrylate]", "EC50": "> 10000"}
{"smiles": "COC(=O)/C=C/c1cccc(N(Cc2ccc(-c3ccc4c(c3)OCO4)cc2)C(=O)C2CCCCC2)c1", "note": "[62.9, (E)-Methyl 3-(3-(N-(4-(benzo[d][1,3]dioxol-5-yl)benzyl)cyclohexanecarboxamido)phenyl) acrylate]", "EC50": "≤ 1000"}
{"smiles": "COC(=O)/C=C/c1cccc(N(Cc2ccc(-c3ccc(OC)c(Cl)c3)cc2)C(=O)C2CCCCC2)c1", "note": "[62.10, (E)-Methyl 3-(3-(N-((3′-chloro-4′-methoxy-[1,1′-biphenyl]-4-yl)methyl)cyclohexanecarboxamido)phenyl) acrylate]", "EC50": "≤ 1000"}
{"smiles": "COC(=O)/C=C/c1cccc(N(Cc2ccc(-c3ccc(N(C)C)cc3)c(C#N)c2)C(=O)C2CCCCC2)c1", "note": "[62.11, (E)-Methyl 3-(3-(N-((2-cyano-4′-(dimethylamino)-[1,1′-biphenyl]-4-yl)methyl)cyclohexanecarboxamido)phenyl) acrylate]", "EC50": "≤ 1000"}
{"smiles": "COC(=O)/C=C/c1cccc(N(Cc2ccc(-c3ccc(N(C)C)cc3)cc2C#N)C(=O)C2CCCCC2)c1", "note": "[62.12, (E)-Methyl 3-(3-(N-((3-cyano-4′-(dimethylamino)-[1,1′-biphenyl]-4-yl)methyl)cyclohexanecarboxamido)phenyl) acrylate]", "EC50": "1000 to 10000"}
{"smiles": "CCc1cc(CN(C(=O)C2CCCCC2)c2cccc(/C=C/C(=O)OC)c2)ccc1-c1ccc(N(C)C)cc1", "note": "[62.13, (E)-Methyl 3-(3-(N-((4′-(dimethylamino)-2-ethyl-[1,1′-biphenyl]-4-yl)methyl)cyclohexanecarboxamido)phenyl) acrylate]", "EC50": "1000 to 10000"}
{"smiles": "CCc1cc(-c2ccc(N(C)C)cc2)ccc1CN(C(=O)C1CCCCC1)c1cccc(/C=C/C(=O)OC)c1", "note": "[62.14, (E)-Methyl 3-(3-(N-((4′-(dimethylamino)-3-ethyl-[1,1′-biphenyl]-4-yl)methyl)cyclohexanecarboxamido)phenyl) acrylate]", "EC50": "≤ 1000"}
{"smiles": "COC(=O)/C=C/c1cccc(N(Cc2ccc(-c3ccc(OC)c(C)c3)cc2)C(=O)C2CCNCC2)c1", "note": "[62.15, (E)-Methyl 3-(3-(N-((4′-methoxy-3′-methyl-[1,1′-biphenyl]-4-yl)methyl)piperidine-4-carboxamido)phenyl)acrylate]", "EC50": "> 10000"}
{"smiles": "COC(=O)/C=C/c1cccc(N(Cc2ccc(-c3ccc(OC)c(C)c3)cc2)C(=O)C2CCN(C(C)=O)CC2)c1", "note": "[62.16, (E)-Methyl 3-(3-(1-acetyl-N-((4′-methoxy-3′-methyl-[1,1′-biphenyl]-4-yl)methyl)piperidine-4-carboxamido)phenyl)acrylate]", "EC50": "1000 to 10000"}
